According to publication PMC3083694, “Effects of Intermediates between Vitamins K2 and K3 on Mammalian DNA Polymerase Inhibition and Anti-Inflammatory Activity” (International Journal of Molecular Sciences, 2011):

Legend:
[1] = molecular target: T1, Human DNA polymerase κ (Homo sapiens, UniProt Q9UBT6); experiment: DNA polymerase activity assay, human pol κ; format: biochemical; settings: for Inhibitory effect on human pol κ activity: 50 μM of each compound, Figure 2
T1 construct: made in house
T1 sequence (Q9UBT6 1-560 limits assumed): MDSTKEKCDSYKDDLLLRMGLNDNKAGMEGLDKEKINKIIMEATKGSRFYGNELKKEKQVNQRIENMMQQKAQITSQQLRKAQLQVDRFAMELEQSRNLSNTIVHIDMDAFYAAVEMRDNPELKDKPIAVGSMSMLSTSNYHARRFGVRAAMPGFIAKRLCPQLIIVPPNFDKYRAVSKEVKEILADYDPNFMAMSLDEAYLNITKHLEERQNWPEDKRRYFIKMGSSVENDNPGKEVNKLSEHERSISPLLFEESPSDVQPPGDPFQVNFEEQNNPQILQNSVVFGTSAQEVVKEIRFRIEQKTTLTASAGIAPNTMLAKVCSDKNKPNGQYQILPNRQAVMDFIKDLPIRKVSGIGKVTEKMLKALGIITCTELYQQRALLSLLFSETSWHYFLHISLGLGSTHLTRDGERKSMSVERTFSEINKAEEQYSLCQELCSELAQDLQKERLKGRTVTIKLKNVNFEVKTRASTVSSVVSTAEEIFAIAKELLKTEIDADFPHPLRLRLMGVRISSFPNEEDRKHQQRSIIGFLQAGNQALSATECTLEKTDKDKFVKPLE
Method: Pols from mammals, a fish (cherry salmon), an insect (fruit fly) and a plant (cauliflower) were purified, and prokaryotic pols and other DNA metabolic enzymes, such as T7 RNA polymerase, T4 polynucleotide kinase and bovine deoxyribonuclease I, were purchased as described in our previous report. The activities of all pols and other DNA metabolic enzymes were measured as described in previous reports.
The components of the pol assay were poly(dA)/oligo(dT)18 and dTTP as the DNA template-primer and 2′-deoxyribonucleoside 5′-triphosphate (dNTP) substrate, respectively. VK2, VK3, and their synthesized derivatives (i.e., MK-3, MK-2 and MK-1) were dissolved in dimethyl sulfoxide (DMSO) at various concentrations and sonicated for 30 s. The sonicated samples (4 μL) were mixed with 16 μL of each pol enzyme (final amount, 0.05 units) in 50 mM Tris-HCl (pH 7.5) containing 1 mM dithiothreitol, 50% glycerol and 0.1 mM EDTA, and kept at 0 °C for 10 min. These inhibitor–enzyme mixtures (8 μL) were added to 16 μL of each standard enzyme reaction mixture (50 mM Tris-HCl [pH 7.5], 1 mM dithiothreitol, 1 mM MgCl2, 15% glycerol, 10 μM poly(dA)/oligo(dT)18 and 10 μM [^3H]-dTTP), and incubation was carried out at 37 °C for 60 min, except for Taq pol, which was incubated at 74 °C for 60 min. Activity without the inhibitor was considered to be 100%, and the activity remaining at each concentration of inhibitor was determined relative to this value. One unit of pol activity was defined as the amount of enzyme that catalyzed the incorporation of 1 nmol dNTP (dTTP) into the synthetic DNA template-primer (poly(dA)/oligo(dT)18, A/T = 2/1) in 60 min at 37 °C under normal reaction conditions for each enzyme (scintillation counts: approximately 1 pmol of incorporated radioactive nucleotides = 100 cpm).

[2] = tested on: LPS-induced production of TNF-α in RAW264.7 cells; experiment: LPS-induced TNF-α production in mouse macrophages (ELISA); format: cell-based; settings: Figure 4; for Suppression of LPS-stimulated production of TNF-α: then 100 ng/mL LPS 24 h; for Inhibitory effect on LPS-stimulated TNF-α production: 10 and 50 μM tested, concentration not specified
Method: A mouse macrophage cell line, RAW264.7, was obtained from American Type Culture Collection (ATCC) (Manassas, VA, U.S.). The cells were cultured in Eagle’s Minimum Essential Medium (MEM) supplemented with 4.5 g of glucose per liter plus 10% fetal calf serum, 5 mM L-glutamine, 50 units/mL penicillin and 50 units/mL streptomycin. The cells were cultured at 37 °C in standard medium in a humidified atmosphere of 5% CO2–95% air.
RAW264.7 cells were placed in a 12-well plate at 5 × 10^4 cells/well and incubated for 24 h. The cells were pretreated with the VK2 and VK3 intermediates (final concentrations of 10 and 50 μM) for 30 min before the addition of 100 ng/mL of LPS. After stimulation with LPS for 24 h, the cell culture medium was collected to measure the amount of TNF-α secreted. The concentration of TNF-α in the culture medium was quantified by using a commercially available enzyme-linked immunosorbent assay (ELISA) development system (Bay Bioscience Co., Ltd., Kobe, Japan) in accordance with the manufacturer’s protocol.

[3] = tested on: TPA-induced edema on mouse ear; experiment: TPA-induced mouse ear inflammatory test; format: in vivo; settings: 250 or 500 μg applied to ear 30 min before TPA (0.5 μg); edema evaluated after 7 h; Figure 3
Method: All animal studies were performed according to the guidelines outlined in the “Care and Use of Laboratory Animals” of Kobe University. The animals were anesthetized with pentobarbital before undergoing cervical dislocation. Female 8-week-old C57BL/6 mice that had been bred in-house with free access to food and water were used for all experiments. All of the mice were maintained under a 12-h light/dark cycle and housed at a room temperature of 25 °C.
The mouse inflammatory test was performed according to Gschwendt’s method. In brief, an acetone solution of the VK2 and VK3 intermediates (250 or 500 μg in 20 μL) or 20 μL of acetone as a vehicle control was applied to the inner part of the mouse ear. Thirty minutes after the test compound was applied, a TPA solution (0.5 μg/20 μL of acetone) was applied to the same part of the ear. To the other ear of the same mouse, methanol, followed by TPA solution, was applied as a control. After 7 h, a disk (6 mm diameter) was obtained from the ear and weighed. The inhibitory effect (IE) is presented as a ratio of the increase in weight of the ear disks: IE=[(TPA only)−(tested compound plus TPA)]/[(TPA only)−(vehicle)]×100

Row | Inhibitory effect on human pol κ activity [1] | SMILES | IC50 ([1]; Y-family pol, read-out: IC50 Value of MK-2, Human DNA polymerase κ) | Suppression of LPS-stimulated production of TNF-α ([2]; 10 μM compound 30 min) | Suppression of LPS-stimulated production of TNF-α ([2]; 50 μM compound 30 min) | Anti-inflammatory activity toward TPA-induced edema on mouse ear [3] | Inhibitory effect on LPS-stimulated TNF-α production [2]
1 | inhibited the activity | CC(C)=CCC/C(C)=C/CC/C(C)=C/CC1=C(C)C(=O)c2ccccc2C1=O [MK-3] | – | – | – | weak effect | moderate inhibitory effect
2 | inhibited the activity | CC(C)=CCC1=C(C)C(=O)c2ccccc2C1=O [MK-1] | – | – | significantly suppressed | suppressed inflammation | –
3 | had no effect on pol activity | CC(C)=CCC/C(C)=C/CC/C(C)=C/CC/C(C)=C/CC1=C(C)C(=O)c2ccccc2C1=O [MK-4, menaquinone 4, reference compound] | – | – | – | weak effect | moderate inhibitory effect

Row | SMILES | Inhibitory effect on human pol κ activity [1] | IC50 ([1]; Y-family pol, read-out: IC50 Value of MK-2, Human DNA polymerase κ) | Suppression of LPS-stimulated production of TNF-α ([2]; 10 μM compound 30 min) | Suppression of LPS-stimulated production of TNF-α ([2]; 50 μM compound 30 min) | Anti-inflammatory activity toward TPA-induced edema on mouse ear [3] | Inhibitory effect on LPS-stimulated TNF-α production [2]
4 | CC(C)=CCC/C(C)=C/CC1=C(C)C(=O)c2ccccc2C1=O [MK-2] | inhibited the activity | 35.3 ± 2.1 µM | significantly suppressed | significantly suppressed | suppressed inflammation | –
